How the values were obtained:
[1] = test system: Mino cells; experiment: Inhibition of cell proliferation, Mino cells (Cell Viability Assay, 72 h); type: cell-based, human; conditions: Homo sapiens, MINO, 72 h
Procedure: (§1) SU-DHL-4, Mino, and SU-DHL-6 cells, in the culture medium of RPMI1640+10% FBS, were cultured in an incubator at 37° C. under 5% CO2. Cells were plated in a 96-well plate. Specifically, SU-DHL-4 cells were at 20000/well, Mino and SU-DHL-6 cells were at 5000/well, with 90 μL/well. 10 μL of the compounds at different concentrations were added to each well. There were 3 replicate wells for each concentration, and the last column, added with DMSO, was used as a vehicle control group. The cultures were continued for 72 hours at 37° C. under 5% CO2. After 72 hours, 100 μL of detection reagent (Cell Viability Assay, Promega, G7573) was added to each well, and the cultures were uniformly mixed for 2 minutes, and incubated at room temperature for 10 minutes. The […] signal value was measured with a microplate reader (PHERAstar FSX). The IC50 value of the compound on cell proliferation inhibition was calculated using origin9.2 software, and the inhibition rate at the highest concentration of the compound (Max inhi.%) was calculated according to formula (1).
(§2) Max inhi.%=(1−T72administration/T72vehicle)×100 Formula (1).

[2] = test system: SU-DHL-6 cells; experiment: Inhibition of cell proliferation, SU-DHL-6 cells (Cell Viability Assay, 72 h); type: cell-based, human; conditions: Homo sapiens, SU-DHL-6, 72 h
Procedure: as §1, §2

[3] = Pharmacokinetic experiment in rats; type: in vivo; conditions: male, SD, rat, po, plasma, single dose
Procedure: Experimental objective: In this experiment, a single dose of each test compound was administered to SD rats intravenously and intragastrically, the concentrations of the test compound in plasma of rats were measured, and the pharmacokinetic characteristics and bioavailability of the test compound in rats were evaluated.
Experimental animals: Male SD rats, about 200 g, 6-8 weeks old, 6 rats/compound. Rats were purchased from Hunan SJA Laboratory Animal Co., Ltd, with the laboratory animal production license number of SCXK (Xiang) 2019-004.
Experimental method: On the day of the experiment, 6 SD rats were randomly grouped according to their body weight. The animals were fasted with water available for 12 to 14 hours one day before the administration of a test compound, and were fed 4 hours after the administration.
Before and after the administration, […] of blood was taken from the orbit of the rats under isoflurane anesthesia, and placed in an EDTAK2 centrifuge tube. Centrifugation was carried out at 5000 rpm at 4° C. for 10 min, and the plasma was collected.
Time points for sample collection in G1&G2 groups comprise
Before analysis and detection, all samples were stored at −80° C. The samples were detected by HPLC-MS/MS.

[4] = molecular target: T1, hERG potassium ion channel (Homo sapiens, UniProt Q12809); experiment: Effect on hERG potassium ion channel, manual patch-clamp in CHO cells; type: cell-based; conditions: CHO cells stably expressing hERG, whole cell patch-clamp, room temperature; read-out: IC50 value of inhibitory effect on hERG potassium channel current
T1 construct: expressed in transfected cells
T1 sequence (Q12809 whole entry): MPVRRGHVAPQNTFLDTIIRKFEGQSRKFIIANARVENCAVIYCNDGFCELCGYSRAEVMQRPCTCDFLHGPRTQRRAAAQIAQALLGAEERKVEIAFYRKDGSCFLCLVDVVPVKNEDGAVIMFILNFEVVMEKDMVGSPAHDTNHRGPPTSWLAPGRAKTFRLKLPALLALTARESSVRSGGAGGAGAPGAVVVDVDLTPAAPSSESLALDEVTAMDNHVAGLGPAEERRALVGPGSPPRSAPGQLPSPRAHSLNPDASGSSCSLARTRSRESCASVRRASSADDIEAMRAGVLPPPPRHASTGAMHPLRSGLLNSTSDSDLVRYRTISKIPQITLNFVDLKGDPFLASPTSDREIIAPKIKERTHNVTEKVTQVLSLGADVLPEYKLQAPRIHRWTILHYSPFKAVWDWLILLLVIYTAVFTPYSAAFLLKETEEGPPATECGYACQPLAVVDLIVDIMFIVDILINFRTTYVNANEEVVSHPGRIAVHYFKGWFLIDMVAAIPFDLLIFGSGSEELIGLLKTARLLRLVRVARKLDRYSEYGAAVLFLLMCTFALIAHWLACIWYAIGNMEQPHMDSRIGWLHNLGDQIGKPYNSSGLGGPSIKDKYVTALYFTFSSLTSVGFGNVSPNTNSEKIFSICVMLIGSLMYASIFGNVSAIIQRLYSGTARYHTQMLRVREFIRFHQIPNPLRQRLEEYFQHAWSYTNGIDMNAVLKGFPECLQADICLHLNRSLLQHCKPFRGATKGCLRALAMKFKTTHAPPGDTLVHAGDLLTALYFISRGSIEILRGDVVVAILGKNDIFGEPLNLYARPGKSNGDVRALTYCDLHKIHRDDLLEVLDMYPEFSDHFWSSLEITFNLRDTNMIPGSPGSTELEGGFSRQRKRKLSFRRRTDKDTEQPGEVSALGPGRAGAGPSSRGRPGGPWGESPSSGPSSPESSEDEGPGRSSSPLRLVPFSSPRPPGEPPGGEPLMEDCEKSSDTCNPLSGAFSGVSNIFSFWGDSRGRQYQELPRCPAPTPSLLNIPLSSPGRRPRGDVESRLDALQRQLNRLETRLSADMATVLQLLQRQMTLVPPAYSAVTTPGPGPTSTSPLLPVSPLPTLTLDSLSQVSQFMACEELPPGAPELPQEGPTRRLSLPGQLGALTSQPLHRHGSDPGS
Text: Experimental platform: electrophysiological manual patch-clamp system
Cell line: Chinese hamster ovary (CHO) cells stably expressing hERG potassium ion channel
Experimental method: In CHO (Chinese Hamster Ovary) cells stably expressing hERG potassium channel, whole cell patch-clamp technique was used to recorded hERG potassium channel current at room temperature. The glass microelectrode is made of a glass electrode blank (BF150-86-10, Sutter) by a puller. The tip resistance after filling the liquid in the electrode is about 2-5 MQ. The glass microelectrode can be connected to the patch-clamp amplifier by inserting the glass microelectrode into an amplifier probe. The clamping voltage and data recording are controlled and recorded by the pClamp 10 software through a computer. The sampling frequency is 10 kHz, and the filtering frequency is 2 kHz. […]
Data analysis processing was carried out by using pClamp 10, GraphPad Prism 5 and Excel software. The inhibition degree of hERG potassium current (peak value of hERG tail current induced at −50 mV) at different compound concentrations was calculated by the following formula: […]
Compound IC50 was calculated using GraphPad Prism 5 software by fitting according to the following equation: […]

| Compound | IC50 [2] | AUC(0-t) ([3]; i.g. (20 mg/kg)) | AUC(0-t) ([3]; i.g. (5 mg/kg)) | IC50 [1] | IC50 [4] |
| --- | --- | --- | --- | --- | --- |
| Nc1ncnc2c1c(-c1ccc(Oc3ccccc3)cc1)nn2[C@@H]1CCN(C2CN(CC3CN(c4ccc5c(c4)C(=O)N(C4CCC(=O)NC4=O)C5=O)C3)C2)C[C@@H]1F (stereo partly drawn) [Compound 110, 5-(3-((3-((3S,4R)-4-(4-amino-3-(4-phenoxyphenyl)-1H-pyrazolo[3,4-d]pyrimidin-1-yl)-3-fluoropiperidin-1-yl)azetidin-1-yl)methyl)azetidin-1-yl)-2-(2,6-dioxopiperidin-3-yl)isoindoline-1,3-dione] | 0.031 µM | 0.614 ± 0.125 µg·h/mL | – | 0.035 µM | – |
| Nc1ncnc2c1c(-c1ccc(Oc3ccccc3)cc1)nn2[C@@H]1CCN(C2CN(CC3CN(c4ccc5c(c4)C(=O)N(C4CCC(=O)NC4=O)C5=O)C3)C2)C[C@H]1F (stereo partly drawn) [Compound 111, 5-(3-((3-((3R,4R)-4-(4-amino-3-(4-phenoxyphenyl)-1H-pyrazolo[3,4-d]pyrimidin-1-yl)-3-fluoropiperidin-1-yl)azetidin-1-yl)methyl)azetidin-1-yl)-2-(2,6-dioxopiperidin-3-yl)isoindoline-1,3-dione] | 0.023 µM | 0.753 ± 0.261 µg·h/mL | – | 0.05 µM | – |
| Nc1ncnc2c1c(-c1ccc(Oc3ccccc3)cc1)nn2[C@H]1CCN(C2CN(CC3CN(c4ccc5c(c4)C(=O)N(C4CCC(=O)NC4=O)C5=O)C3)C2)C[C@@H]1F (stereo partly drawn) [Compound 112, 5-(3-((3-((3S,4S)-4-(4-amino-3-(4-phenoxyphenyl)-1H-pyrazolo[3,4-d]pyrimidin-1-yl)-3-fluoropiperidin-1-yl)azetidin-1-yl)methyl)azetidin-1-yl)-2-(2,6-dioxopiperidin-3-yl)isoindoline-1,3-dione] | 0.036 µM | 1.79 ± 0.663 µg·h/mL | – | 0.039 µM | – |
| Nc1ncnc2c1c(-c1ccc(Oc3ccccc3)cc1)nn2[C@H]1CCN(C2CN(CC3(F)CN(c4cc5c(cc4F)C(=O)N(C4CCC(=O)NC4=O)C5=O)C3)C2)C[C@H]1F (stereo partly drawn) [Compound 113, 5-(3-((3-((3R,4S)-4-(4-amino-3-(4-phenoxyphenyl)-1H-pyrazolo[3,4-d]pyrimidin-1-yl)-3-fluoropiperidin-1-yl)azetidin-1-yl)methyl)-3-fluoroazetidin-1-yl)-2-(2,6-dioxopiperidin-3-yl)-6-fluoroisoindoline-1,3-dione] | 0.1 µM | 3.82 ± 0.811 µg·h/mL | – | 0.061 µM | > 40 µM |

Now from value to compound, other results behind:

| IC50 [2] | AUC(0-t) ([3]; i.g. (20 mg/kg)) | AUC(0-t) ([3]; i.g. (5 mg/kg)) | Compound | IC50 [1] | IC50 [4] |
| --- | --- | --- | --- | --- | --- |
| 0.024 µM | 2.67 ± 0.738 µg·h/mL | – | Nc1ncnc2c1c(-c1ccc(Oc3ccccc3)cc1)nn2[C@H]1CCN(C2CN(CC3CN(c4cc5c(cc4F)C(=O)N(C4CCC(=O)NC4=O)C5=O)C3)C2)C[C@H]1F (stereo partly drawn) [Compound 114, 5-(3-((3-((3R,4S)-4-(4-amino-3-(4-phenoxyphenyl)-1H-pyrazolo[3,4-d]pyrimidin-1-yl)-3-fluoropiperidin-1-yl)azetidin-1-yl)methyl)azetidin-1-yl)-2-(2,6-dioxopiperidin-3-yl)-6-fluoroisoindoline-1,3-dione] | 0.066 µM | – |
| 0.133 µM | 5.82 ± 2.26 µg·h/mL | – | Nc1ncnc2c1c(-c1ccc(Oc3ccccc3)cc1)nn2C1CCN(C2CN(CC3(F)CN(c4cc5c(cc4F)C(=O)N(C4CCC(=O)NC4=O)C5=O)C3)C2)CC1 (centres unmarked) [Compound 115, 5-(3-((3-(4-(4-amino-3-(4-phenoxyphenyl)-1H-pyrazolo[3,4-d]pyrimidin-1-yl)piperidin-1-yl)azetidin-1-yl)methyl)-3-fluoroazetidin-1-yl)-2-(2,6-dioxopiperidin-3-yl)-6-fluoroisoindoline-1,3-dione] | 0.166 µM | > 40 µM |
| 0.052 µM | 4.44 ± 0.544 µg·h/mL | – | Nc1ncnc2c1c(-c1ccc(Oc3ccccc3)cc1)nn2C1CCN(C2CN(CC3(F)CN(c4ccc5c(c4)C(=O)N(C4CCC(=O)NC4=O)C5=O)C3)C2)CC1 (centres unmarked) [Compound 116, 5-(3-((3-(4-(4-amino-3-(4-phenoxyphenyl)-1H-pyrazolo[3,4-d]pyrimidin-1-yl)piperidin-1-yl)azetidin-1-yl)methyl)-3-fluoroazetidin-1-yl)-2-(2,6-dioxopiperidin-3-yl)isoindoline-1,3-dione] | 0.029 µM | – |
| 0.098 µM | 2.28 ± 0.064 µg·h/mL | – | Nc1ncnc2c1c(-c1ccc(Oc3ccccc3)cc1)nn2C1CCN(C2CN(CC3(F)CCN(c4cc5c(cc4F)C(=O)N(C4CCC(=O)NC4=O)C5=O)CC3)C2)CC1 (centres unmarked) [Compound 117, 5-(4-((3-(4-(4-amino-3-(4-phenoxyphenyl)-1H-pyrazolo[3,4-d]pyrimidin-1-yl)piperidin-1-yl)azetidin-1-yl)methyl)-4-fluoropiperidin-1-yl)-2-(2,6-dioxopiperidin-3-yl)-6-fluoroisoindoline-1,3-dione] | 0.119 µM | – |
| 0.05 µM | 2.08 ± 0.985 µg·h/mL | – | Nc1ncnc2c1c(-c1ccc(Oc3ccccc3)cc1)nn2C1CCN(C2CN(CC3(F)CCN(c4ccc5c(c4)C(=O)N(C4CCC(=O)NC4=O)C5=O)CC3)C2)CC1 (centres unmarked) [Compound 118, 5-(4-((3-(4-(4-amino-3-(4-phenoxyphenyl)-1H-pyrazolo[3,4-d]pyrimidin-1-yl)piperidin-1-yl)azetidin-1-yl)methyl)-4-fluoropiperidin-1-yl)-2-(2,6-dioxopiperidin-3-yl)isoindoline-1,3-dione] | 0.052 µM | – |
| 0.012 µM | 0.347 ± 0.055 µg·h/mL | – | Nc1ncnc2c1c(-c1ccc(Oc3ccccc3)cc1)nn2C1CCN(C2CN(CC3CCN(c4ccc5c(c4)C(=O)N(C4CCC(=O)NC4=O)C5=O)CC3)C2)CC1 (centres unmarked) [Trifluoroacetate of compound 98, 5-(4-((3-(4-(4-amino-3-(4-phenoxyphenyl)-1H-pyrazolo[3,4-d]pyrimidin-1-yl)piperidin-1-yl)azetidin-1-yl)methyl)piperidin-1-yl)-2-(2,6-dioxopiperidin-3-yl)isoindoline-1,3-dione] | 0.02 µM | – |
| 0.024 µM | – | 0.504 ± 0.131 µg·h/mL | Nc1ncnc2c1c(-c1ccc(Oc3ccccc3)cc1)nn2C1CCN(C2CN(CC3CCN(c4ccc5c(c4)C(=O)N(C4CCC(=O)NC4=O)C5=O)C3)C2)CC1 (centres unmarked) [Trifluoroacetate of compound 99, 5-(3-((3-(4-(4-amino-3-(4-phenoxyphenyl)-1H-pyrazolo[3,4-d]pyrimidin-1-yl)piperidin-1-yl)azetidin-1-yl)methyl)pyrrolidine-1-yl)-2-(2,6-dioxopiperidin-3-yl)isoindoline-1,3-dione] | 0.021 µM | – |

Reference: US20230248833A1, “COMPOUND HAVING BTK KINASE DEGRADING ACTIVITY, AND PREPARATION METHOD AND PHARMACEUTICAL USE THEREFOR” (SICHUAN HAISCO PHARMACEUTICAL CO., LTD., priority 2020, published 2023)
